Legend:
HRV-C RdRp = target: T1, HRV-C RdRp (rhinovirus C15, UniProt E5D8F2); assay: primer extension RNA synthesis, denaturing PAGE; type: biochemical
T1 sequence (E5D8F2 1694-2153): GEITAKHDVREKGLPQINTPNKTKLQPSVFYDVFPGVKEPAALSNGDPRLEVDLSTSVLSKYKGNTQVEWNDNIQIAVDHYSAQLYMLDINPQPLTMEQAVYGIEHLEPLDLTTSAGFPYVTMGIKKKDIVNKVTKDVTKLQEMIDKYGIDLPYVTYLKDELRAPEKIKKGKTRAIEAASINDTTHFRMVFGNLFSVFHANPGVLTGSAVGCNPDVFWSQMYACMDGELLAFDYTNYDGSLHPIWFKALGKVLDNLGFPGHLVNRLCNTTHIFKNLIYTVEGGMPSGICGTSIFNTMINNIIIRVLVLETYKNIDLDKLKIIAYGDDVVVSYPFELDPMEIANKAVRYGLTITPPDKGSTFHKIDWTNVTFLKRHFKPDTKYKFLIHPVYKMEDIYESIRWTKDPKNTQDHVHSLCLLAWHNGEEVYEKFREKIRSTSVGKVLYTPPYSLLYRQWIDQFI

Hs CMPK2 [1] = target: T2, Hs CMPK2 (Homo sapiens, UniProt Q5EBM0); assay: kinase assay, CTP formation; type: biochemical; settings: 1 mM CDP; phosphate donor ATP or GTP; 5 μM enzyme
T2 sequence (Q5EBM0 99-449): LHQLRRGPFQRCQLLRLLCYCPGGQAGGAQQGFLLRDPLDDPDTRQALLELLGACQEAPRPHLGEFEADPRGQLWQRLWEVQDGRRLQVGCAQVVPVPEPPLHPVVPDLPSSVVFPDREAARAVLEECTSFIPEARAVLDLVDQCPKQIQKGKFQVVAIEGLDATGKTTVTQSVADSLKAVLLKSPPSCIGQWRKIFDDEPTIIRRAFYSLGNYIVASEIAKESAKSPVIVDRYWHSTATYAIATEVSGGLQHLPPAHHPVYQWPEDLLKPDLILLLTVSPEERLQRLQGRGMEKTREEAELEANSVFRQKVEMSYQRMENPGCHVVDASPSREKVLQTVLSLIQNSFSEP

Hs CMPK2 [2] = target: T2, Hs CMPK2; assay: kinase assay, UTP formation; type: biochemical; settings: 1 mM UDP; phosphate donor ATP or GTP; 5 μM enzyme
PV RdRp = PV RdRp (Human poliovirus 1 Mahoney, UniProt P03300); type: biochemical
Hs viperin = target: T3, Hs viperin (Homo sapiens, UniProt Q8WXG1); assay: LC/MS of extracts of transfected HEK293T cells; type: cell-based; settings: endogenous CTP and SAM; vector control
T3 sequence (Q8WXG1 1-361): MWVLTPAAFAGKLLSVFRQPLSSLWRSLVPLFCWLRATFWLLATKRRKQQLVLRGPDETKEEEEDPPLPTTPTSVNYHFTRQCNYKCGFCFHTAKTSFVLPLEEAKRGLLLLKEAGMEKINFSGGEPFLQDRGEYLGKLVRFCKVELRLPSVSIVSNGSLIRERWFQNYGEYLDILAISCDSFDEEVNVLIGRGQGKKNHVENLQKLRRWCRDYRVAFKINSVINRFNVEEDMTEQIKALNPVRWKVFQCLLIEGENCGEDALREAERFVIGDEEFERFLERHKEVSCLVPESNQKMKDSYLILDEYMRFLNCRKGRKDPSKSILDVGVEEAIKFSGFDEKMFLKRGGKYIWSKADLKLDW

DV RdRp = DV RdRp (Dengue virus 2 Peru/IQT2913/1996, UniProt Q9WDA6); assay: primer extension RNA synthesis, denaturing PAGE; type: biochemical; settings: 0.1 μM CTP; competes with CTP; incorporated as chain terminator
WNV RdRp = WNV RdRp (West Nile virus strain NY-99, UniProt Q9Q6P4); assay: primer extension RNA synthesis, denaturing PAGE; type: biochemical
WNV RdRp, sequence (Q9Q6P4 2529-3433): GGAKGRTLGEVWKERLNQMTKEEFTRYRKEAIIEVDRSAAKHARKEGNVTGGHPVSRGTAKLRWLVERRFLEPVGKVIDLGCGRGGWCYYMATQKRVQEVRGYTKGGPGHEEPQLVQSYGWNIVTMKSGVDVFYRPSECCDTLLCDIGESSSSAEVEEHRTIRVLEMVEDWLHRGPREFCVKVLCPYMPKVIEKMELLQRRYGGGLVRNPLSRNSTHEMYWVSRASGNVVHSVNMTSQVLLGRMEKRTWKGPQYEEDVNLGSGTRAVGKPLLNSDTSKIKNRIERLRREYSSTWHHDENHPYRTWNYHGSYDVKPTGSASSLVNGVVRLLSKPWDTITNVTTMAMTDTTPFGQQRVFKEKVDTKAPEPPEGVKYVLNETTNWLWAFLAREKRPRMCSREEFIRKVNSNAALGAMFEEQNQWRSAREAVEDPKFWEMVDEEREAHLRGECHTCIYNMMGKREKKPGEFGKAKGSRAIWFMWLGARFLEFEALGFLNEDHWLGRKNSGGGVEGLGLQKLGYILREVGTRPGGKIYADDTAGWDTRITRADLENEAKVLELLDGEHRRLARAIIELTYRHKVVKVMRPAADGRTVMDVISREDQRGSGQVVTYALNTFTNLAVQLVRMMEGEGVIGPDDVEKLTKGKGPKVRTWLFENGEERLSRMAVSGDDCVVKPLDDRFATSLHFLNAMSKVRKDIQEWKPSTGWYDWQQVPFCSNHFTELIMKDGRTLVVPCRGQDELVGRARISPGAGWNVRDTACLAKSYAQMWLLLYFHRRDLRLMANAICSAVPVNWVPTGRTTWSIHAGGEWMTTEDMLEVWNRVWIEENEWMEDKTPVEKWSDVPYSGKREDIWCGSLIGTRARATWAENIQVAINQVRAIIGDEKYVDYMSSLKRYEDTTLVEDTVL

DV RdRp, sequence (Q9WDA6 2492-3391): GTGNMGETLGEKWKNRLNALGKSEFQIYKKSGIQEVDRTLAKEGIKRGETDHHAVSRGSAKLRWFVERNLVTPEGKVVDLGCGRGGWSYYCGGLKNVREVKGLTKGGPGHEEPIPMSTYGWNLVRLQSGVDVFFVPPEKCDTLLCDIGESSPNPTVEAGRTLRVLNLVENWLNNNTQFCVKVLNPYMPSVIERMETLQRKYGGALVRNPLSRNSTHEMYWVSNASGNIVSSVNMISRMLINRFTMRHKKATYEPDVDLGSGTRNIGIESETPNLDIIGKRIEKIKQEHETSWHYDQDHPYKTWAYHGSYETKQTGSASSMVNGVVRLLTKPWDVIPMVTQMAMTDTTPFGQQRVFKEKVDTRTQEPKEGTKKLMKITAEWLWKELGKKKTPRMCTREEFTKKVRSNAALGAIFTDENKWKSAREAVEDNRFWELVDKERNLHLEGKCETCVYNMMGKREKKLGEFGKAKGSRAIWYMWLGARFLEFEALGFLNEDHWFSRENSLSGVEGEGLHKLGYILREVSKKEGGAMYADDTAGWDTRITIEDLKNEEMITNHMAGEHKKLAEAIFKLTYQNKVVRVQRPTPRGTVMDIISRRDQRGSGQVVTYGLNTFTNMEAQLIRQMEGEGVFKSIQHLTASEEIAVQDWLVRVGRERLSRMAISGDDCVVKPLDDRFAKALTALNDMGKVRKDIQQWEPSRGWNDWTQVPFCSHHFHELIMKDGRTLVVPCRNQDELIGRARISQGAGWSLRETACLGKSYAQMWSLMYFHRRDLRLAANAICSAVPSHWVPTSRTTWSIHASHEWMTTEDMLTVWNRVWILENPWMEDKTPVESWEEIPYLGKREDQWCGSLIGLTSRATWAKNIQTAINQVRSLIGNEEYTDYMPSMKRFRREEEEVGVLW
PV RdRp, sequence (P03300 1749-2209 limits assumed): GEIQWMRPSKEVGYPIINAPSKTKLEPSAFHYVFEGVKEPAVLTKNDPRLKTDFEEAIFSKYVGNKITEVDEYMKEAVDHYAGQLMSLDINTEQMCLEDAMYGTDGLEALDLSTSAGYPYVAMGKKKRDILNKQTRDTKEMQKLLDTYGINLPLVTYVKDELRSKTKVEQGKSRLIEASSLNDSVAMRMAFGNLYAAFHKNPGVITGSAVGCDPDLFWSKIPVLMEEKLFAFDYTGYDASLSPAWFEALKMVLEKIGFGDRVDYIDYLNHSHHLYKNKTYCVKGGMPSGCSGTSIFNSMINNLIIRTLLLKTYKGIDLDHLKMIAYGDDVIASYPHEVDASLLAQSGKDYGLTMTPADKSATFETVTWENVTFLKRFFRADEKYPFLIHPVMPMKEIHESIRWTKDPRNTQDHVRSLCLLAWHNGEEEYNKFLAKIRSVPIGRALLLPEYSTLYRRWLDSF

Nc1ccn([C@@H]2O[C@H](COP(=O)(O)OP(=O)(O)OP(=O)(O)O)C[C@H]2O)c(=O)n1 [3′-dCTP]
IC50 (HRV-C RdRp): 5 ± 1 µM

Nc1ccn([C@@H]2O[C@H](COP(=O)(O)OP(=O)(O)O)[C@@H](O)[C@H]2O)c(=O)n1 [CDP]
kinase assay, CTP formation (Hs CMPK2 [1]): Hs CMPK2 exhibits significant preference for CDP and UDP as substrates

O=c1ccn([C@@H]2O[C@H](COP(=O)(O)OP(=O)(O)O)[C@@H](O)[C@H]2O)c(=O)[nH]1 [UDP]
kinase assay, UTP formation (Hs CMPK2 [2]): Hs CMPK2 exhibits significant preference for CDP and UDP as substrates

Nc1ccn([C@@H]2OC(COP(=O)(O)OP(=O)(O)OP(=O)(O)O)=C[C@H]2O)c(=O)n1 [ddhCTP]
primer extension RNA synthesis, denaturing PAGE (PV RdRp): both HRV-C and PV RdRp were poorly inhibited by ddhCTP
LC/MS of extracts of transfected HEK293T cells (Hs viperin): HEK293T cells transfected with the Hs viperin plasmid exhibited considerable intracellular ddhCTP levels
IC50 (DV RdRp): 60 ± 10 µM
IC50 (WNV RdRp): 20 ± 10 µM
IC50 (HRV-C RdRp): 900 ± 300 µM

From paper PMC6026066 (Nature, 2018)
